Measurements from US20200390825A1, “PLURIPOTENT STEM CELL-DIRECTED MODEL OF AUTOSOMAL DOMINANT POLYCYSTIC KIDNEY DISEASE FOR DISEASE MECHANISM AND DRUG DISCOVERY” (University of Southern California, priority 2019, published 2020).

Experiments:
[1] = test system: PKD2−/− organoids; experiment: Primary protein kinase inhibitor screen for cyst formation in mini-kidney organoids; type: cell-based, human; conditions: 1 μM, 9 wells on 3 plates per compound
Procedure: The autoclaved methylcellulose was dissolved in 60° C. 450 ml of Advanced RPMI 1640 Medium (Gibco, 12633020).
Several commercially available libraries of pathway annotated protein kinase inhibitors were purchased from Calbiochem for screening: EMD protein kinase inhibitor 1 (Cat. No. 539744); EMD-protein kinase inhibitor-2 (Cat. No. 539745); EMD protein kinase inhibitor-3 (Cat. No. 539746); EMD protein kinase inhibitor-4 (Cat. No. 539747). All screens were carried out in the Choi Family Therapeutic Screening Facility in the Broad-CIRM center.
Protein kinase inhibitors were diluted in DMSO to make 10 μM stocks. […] The plates were loaded on the ImageXpress Micro System for live imaging right after compounds were loaded. The imaging was performed using the “Standard” algorithm, at 4× magnification, 2 camera binning, with laser-based and image-based focusing enabled, and well-to-well autofocus was set to “focus on plate bottom and well bottom”.
To gain new insight into pathways specifically regulating cystic growth and to validate the mini-organoid system as a robust drug screening tool, we screened a commercial library of pathway annotated protein kinase inhibitors (FIG. 19). The primary screen was performed using a library of 247 protein kinase inhibitors (PKIs) (at 1 μM) on PKD2−/− organoids, with 9 wells on 3 separate plates per compound. […] To increase the stringency of the screen, only compounds identified as “hits” in all 9 wells were considered true “hits” and selected for a secondary screen.

[2] = test system: PKD2−/− organoids; conditions: for Inhibition of cyst formation / cystic growth: PKD2−/− mutant organoids, 0.1 μM
Procedure: (§1) 15 g of methelcellulose powder (Sigma-Aldrich, M0512) was autoclaved in a 500-ml Erlenmeyer flask. The autoclaved methylcellulose was dissolved in 60° C. 450 ml of Advanced RPMI 1640 Medium (Gibco, 12633020). 50 ml of Advanced RPMI 1640 Medium+1× Glutamax (Gibco, 35050079) and 1% Penicillin-Streptomycin (Invitrogen, 15070063) was then added at room temperature to a final volume of 500 ml. The final stock solution was cleared by centrifugation at 4000×g for 2 hours. The clear viscous supernatant was used for the spheroid assay. For mini-organoids culture and imaging, 170 μl of 20% methycellulose stock solution+80% basal differentiation media mix was added to each well of a 96-well plate (brand).
(§2) At dd13, miniature kidney organoids were transferred from the EZSPHERE plates to a sterile 35-mm dish by gentle pipetting with wide-bore P1000 tips. Under a dissecting microscope, 10-12 mini-organoids in 10 μl of media were picked up using a P20 pipetman and released into a well of the methylcellulose plate. A P20 pipette tip was then used to adjust the mini-organoids' positions in the well to avoid clustering. The mini-organoids then dispersed at the bottom of the well.
Compounds that were scored as true “hits” from the primary screen were selected for validations in both PKD1−/− and PKD2−/− mutant organoids. The compounds were diluted in DMSO to 1, 10 or 100 μM via serial dilution to make the working stocks. At dd14, 20 μl of each diluted compound or DMSO was added to a methylcellulose well with embedded organoids (180 μl) to achieve a final concentration of 0.1, 1 or 10 μM. The plates were imaged for 7 days using the ImageXpress Micro System as described above.
Compounds that inhibited cyst formation in both PKD1−/− and PKD2−/− mini-organoids were classified as final “hits”.
Tolvaptan is the first FDA approved pharmacological treatment for ADPKD targeting cAMP levels through the inhibition of AVPR2.
We examined dosage-dependent responses by applying 3 different compound concentrations of each compound: 0.1, 1 and 10 μM.

[3] = test system: PKD1−/− organoids; experiment: Secondary screen of cystogenesis, dosage-dependent responses; type: cell-based, human
Procedure: as §1, §2
Compounds that were scored as true “hits” from the primary screen were selected for validations in both PKD1−/− and PKD2−/− mutant organoids. […]

SMILES	Primary screen outcome at dd20 (cystic growth / cell growth inhibition) [1]	other results
COc1cccc(-c2cc(=O)c3ccccc3o2)c1N [PD 98059]	more specific inhibition of cystic growth	–
CC1=C(O)C(=O)C=C2C1=CC=C1[C@@]2(C)CC[C@@]2(C)[C@@H]3C[C@](C)(C(=O)O)CC[C@]3(C)CC[C@]12C [Celastrol]	–	Effect on cell growth ([2]; PKD2−/− organoids, 10 μM): more broadly detrimental to cell growth; Screen outcome category ([2]; PKD2−/− organoids, at 1): hit
CC(C)C[C@H](NC(=O)[C@H](CCc1ccccc1)NC(=O)CN1CCOCC1)C(=O)N[C@@H](Cc1ccccc1)C(=O)N[C@@H](CC(C)C)C(=O)[C@@]1(C)CO1 [Carfilzomib]	–	Inhibition of cyst formation / cystic growth [2]: prevented cyst formation effectively; Concentration at which cyst formation was prevented ([3]; PKD1−/− cystic organoids, tested 0.1, 1, 10 μM): only at the highest concentration
NC(=O)Nc1sc(-c2ccccc2)cc1C(N)=O [IKK-2 inhibitor VI, (5-phenyl-2-ureido)thiophene-3-carboxamide]	more specific inhibition of cystic growth	–
O=C1NCCc2[nH]c(-c3ccncc3)cc21 [Cdc7/Cdk9 inhibitor]	more specific inhibition of cystic growth	–
CN[C@@H]1C[C@H]2O[C@@](C)([C@@H]1OC)n1c3ccccc3c3c4c(c5c6ccccc6n2c5c31)C(=O)N[C@H]4O [UCN-02, 7-epi-hydroxystaurosporine]	more specific inhibition of cystic growth	–
O=C(c1ccc(Nc2nccc(-c3cc4ccccc4s3)n2)cc1)N1CCC(N2CCCC2)CC1 [IKK inhibitor VII]	more specific inhibition of cystic growth	–
Nc1ccc2ncnc(NCCc3ccc(Oc4ccccc4)cc3)c2c1 [NF-κB activation inhibitor]	–	Inhibition of cyst formation / cystic growth [2]: highly effective inhibiting cystic growth; Inhibition of cystic growth ([3]; PKD1−/− mutants, 0.1 μM): highly effective inhibiting cystic growth
Cc1ncc2ccccc2c1C#N [4-Cyano-3-methylisoquinoline]	more specific inhibition of cystic growth	–
O=C1NC(=NCc2cccs2)S/C1=C\c1ccc2ncccc2c1 [Cdk1 inhibitor IV RO-3306]	more specific inhibition of cystic growth	–
Nc1ncnc2n[nH]c(Nc3ccc(F)cc3)c12 [MNK1 inhibitor]	more specific inhibition of cystic growth	–
O=C1c2ccccc2-[n+]2ccc3c([nH]c4ccccc43)c21 [fascaplysin]	more specific inhibition of cystic growth	–
